Values belong to the compound of their own block, whether it stands above or below them. Bridge positions count the residues as written; N and C are the ends. Square brackets hold non-standard residues; d marks the D form. Peptide text beside a SMILES is read from it. * marks the point of attachment. ξ: configuration not given here. X1 = NC(CO)C(=O)NC(Cc1ccccc1)C(=O)NCCCCN*; ξE = NC(CCC(=O)O)C(=O)O; ξK = NCCCCC(N)C(=O)O
Assays:
[1] = biological target: T1, Programmed cell death 1 ligand 1 (Homo sapiens, UniProt Q9NZQ7); test: Antagonist activity against PDL1 (unknown origin)
Splenocyte [2] = test: Antiproliferative activity against mouse splenocytes relative to control; type: functional; design: concentration or dose not given beside the values
[3] = biological target: Programmed cell death protein 1/Programmed cell death 1 ligand 1 (Homo sapiens, UniProt Q15116+Q9NZQ7); test: Inhibition of human PD1/PDL1 protein-protein interaction by HTRF assay; type: protein-complex assay
Splenocyte [4] = test: Antiproliferative activity against mouse splenocytes at 100 nM relative to control; type: functional
B16-F10 = test: Antitumor activity against mouse B16F10 cells xenografted in mouse assessed as reduction in tumor growth at 5 mg/kg, sc qd after 14 days relative to control; type: functional; details: 336 h, read-out: TGI
HEK293 = test: Antiproliferative activity against HEK293 cells; type: functional, cell-based; details: Homo sapiens
MDA-MB-231 = test: Antiproliferative activity against human MDA-MB-231 cells; type: functional, cell-based
4T1 = test: Antitumor activity against mouse 4T1 cells xenografted in mouse assessed as reduction in tumor growth at 3 mg/kg, sc qd after 40 days relative to control; type: functional; details: 4T1, sc, 960 h, read-out: TGI
CT26 = test: Antitumor activity against mouse CT26 cells xenografted in mouse assessed as reduction in tumor growth at 3 mg/kg after 25 days relative to control; type: functional; details: CT26, 600 h, read-out: TGI
[5] = biological target: T2, Programmed cell death 1 ligand 2 (Homo sapiens, UniProt Q9BQ51); test: Inhibition of PDL2 (unknown origin)
T2 sequence (Q9BQ51 whole entry): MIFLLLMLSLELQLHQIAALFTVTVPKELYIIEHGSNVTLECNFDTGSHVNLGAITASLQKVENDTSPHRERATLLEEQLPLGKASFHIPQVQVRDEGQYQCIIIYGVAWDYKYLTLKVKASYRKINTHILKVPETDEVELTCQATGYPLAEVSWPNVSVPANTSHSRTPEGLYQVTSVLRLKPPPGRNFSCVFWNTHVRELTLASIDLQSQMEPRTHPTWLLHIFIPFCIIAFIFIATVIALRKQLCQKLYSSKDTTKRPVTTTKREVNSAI

[6] = biological target: T1, Programmed cell death 1 ligand 1; test: Inhibition of PDL1 (unknown origin)

T1 sequence (Q9NZQ7 whole entry): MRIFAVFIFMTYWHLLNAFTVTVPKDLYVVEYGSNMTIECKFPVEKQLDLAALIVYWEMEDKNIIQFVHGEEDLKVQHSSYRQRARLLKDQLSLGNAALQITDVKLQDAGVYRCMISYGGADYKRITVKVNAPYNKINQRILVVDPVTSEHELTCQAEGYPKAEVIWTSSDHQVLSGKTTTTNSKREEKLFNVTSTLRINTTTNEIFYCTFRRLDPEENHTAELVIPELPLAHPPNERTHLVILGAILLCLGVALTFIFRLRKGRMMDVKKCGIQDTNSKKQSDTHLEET
Chain of Programmed cell death protein 1/Programmed cell death 1 ligand 1 (Q15116 whole entry): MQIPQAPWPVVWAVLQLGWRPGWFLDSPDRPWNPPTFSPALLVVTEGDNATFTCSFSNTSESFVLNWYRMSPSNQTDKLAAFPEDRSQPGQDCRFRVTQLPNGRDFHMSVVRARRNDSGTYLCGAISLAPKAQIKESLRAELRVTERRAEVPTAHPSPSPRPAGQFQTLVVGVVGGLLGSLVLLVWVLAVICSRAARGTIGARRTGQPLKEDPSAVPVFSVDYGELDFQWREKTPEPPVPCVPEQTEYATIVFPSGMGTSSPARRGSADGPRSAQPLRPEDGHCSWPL
Chain of Programmed cell death protein 1/Programmed cell death 1 ligand 1 (Q9NZQ7 whole entry): as the sequence (Q9NZQ7 whole entry) above

Compound: Cc1c(-c2ccccc2)cccc1-c1cn2nc(CNCCO)cnc2n1
IC50 [1]: < 100 nM

Compound: C[C@@H](O)[C@H](N)c1nnc([C@H](CCC(N)=O)NC(=O)N[C@@H](CO)C(=O)O)o1
Activity (Splenocyte [2]): 92%

Compound: Cc1c(NC(=O)c2cc(CN3CCCC[C@H]3C(=O)O)cn(C)c2=O)cccc1-c1ccccc1
IC50 [3]: < 100 nM

Compound: N#Cc1c(-c2ccc3c(c2)OCCO3)cccc1N1CCC(N[C@H]2C[C@@H](O)C2)CC1
IC50 [1]: < 100 nM

Compound: CCCNC(=O)CC[C@H](NC(=O)N[C@H](C(=O)O)[C@@H](C)O)c1nc([C@@H](N)CO)no1
Activity (Splenocyte [4]): 119%

Compound: Cc1c(COc2cc(OCc3cncc(C#N)c3)c(CN(C)C(CO)(CO)CO)cc2Cl)cccc1-c1cccc(OCCCN2CCC(F)(F)C2)c1C
IC50 [3]: 0.5 nM

Compound: C#CC[C@H](NC(=O)N[C@H](C(=O)O)[C@@H](C)O)c1nc(-c2cnccn2)no1
Activity (Splenocyte [2]): 92%

Compound: N#Cc1cccc(COc2cc(OCc3cccc(-c4ccccc4)c3Br)c(Cl)cc2CN2CCCC[C@H]2C(=O)O)c1
IC50 [3]: 800000 nM

Compound: Cc1c(COc2cc(OCc3cncc(C#N)c3)c(CN(C)C(C)(CO)CO)cc2Cl)cccc1-c1ccnc(OCCCN2CCCCC2)c1Cl
IC50 [3]: < 10 nM

Compound: NC(=O)C[C@H](NC(=O)N[C@@H](CO)C(=O)O)c1nc([C@@H](N)CO)no1
Activity (Splenocyte [2]): 91%

Compound: Cc1c(/C=C/c2cc(CNC(C)(CO)C(=O)O)ccc2C(F)(F)F)cccc1-c1ccc2c(c1)OCCO2 (configuration not stated)
IC50 [3]: 18 nM

Compound: NCCCC[C@H](N)c1nnc([C@H](CC(N)=O)NC(=O)N[C@@H](CCC(=O)O)C(=O)O)o1
Activity (Splenocyte [2]): 79%

Compound: C[C@@H](O)[C@H](NC(=O)[C@H](CC(N)=O)NC(=O)[C@@H](N)CO)C(=O)N[C@@H](CO)C(=O)NC(CCC(=O)NCCCCNC(=O)C(Cc1ccccc1)NC(=O)C(N)CO)C(N)=O (some centres not stated) (H-SNTS[ξE](X1)-NH2)
inhibition in vivo at 5 mg/kg (B16-F10): 64%

Compound: NC(=O)C[C@H](NC(=O)N[C@@H](CO)C(=O)O)c1nnc(-c2cnccn2)o1
Activity (Splenocyte [2]): 63%

Compound: O=C(/C=C/c1ccc(O)c(O)c1)O[C@H]1C[C@@](O)(C(=O)O)C[C@H](O)[C@@H]1O
IC50 [1]: 36600 nM

Compound: C[C@@H](O)[C@@H]1NC(=O)C(NC(=O)[C@@H](N)CO)CCC(=O)NCCCCC(C(=O)N[C@@H](CO)C(=O)N[C@@H](Cc2ccccc2)C(N)=O)NC(=O)[C@H](CO)NC1=O (some centres not stated) (H-S[ξE]TS[ξK]SF-NH2; lactam 2-5)
inhibition in vivo at 5 mg/kg (B16-F10): 54%
Activity (Splenocyte [4]): 78%

Compound: O=C(O)C[C@H]1NC(=O)N[C@H](CO)C(=O)NCCOCCOCC(=O)N[C@@H](CO)C(=O)NNC1=O
Activity (Splenocyte [2]): 92%

Compound: Cc1c(-c2ccccc2)cccc1-c1nc2c(s1)CNCC2
IC50 [1]: < 100 nM

Compound: NCCCC[C@H](NC(=O)N[C@@H](CC(N)=O)C(=O)NNC(=O)[C@@H](N)CO)C(=O)O
Activity (Splenocyte [2]): 87%

Compound: N#Cc1cncc(COc2cc(O[C@H]3CCc4c(-c5ccccc5)cccc43)c(Cl)cc2CN[C@@H](CO)C(=O)O)c1
IC50 [1]: < 100 nM

Compound: NC(=O)C[C@H](N)c1nc([C@@H](N)CO)no1
Activity (Splenocyte [4]): 93%

IC50 (MDA-MB-231): 0.41 nM
Compound: CC[C@H](C)[C@H](NC(=O)[C@H](CCC(N)=O)NC(=O)[C@H](C)NC(=O)[C@H](CCCCN)NC(=O)[C@@H]1CCCN1C(=O)[C@H](C)NC(=O)[C@H](CC(C)C)NC(=O)[C@H](CCC(N)=O)NC(=O)[C@@H](NC(=O)[C@@H](NC(=O)[C@H](CCCNC(=N)N)NC(=O)[C@H](Cc1ccccc1)NC(=O)[C@H](CCCCNC(=O)[C@H](Cc1ccccc1)NC(=O)[C@H](CO)NC(=O)[C@H](CCC(=O)O)NC(=O)[C@H](CO)NC(=O)[C@@H](NC(=O)[C@H](CC(N)=O)NC(=O)[C@@H](N)CO)[C@@H](C)O)NC(=O)[C@H](Cc1ccccc1)NC(=O)[C@H](CO)NC(=O)[C@H](CCC(=O)O)NC(=O)[C@H](CO)NC(=O)[C@@H](NC(=O)[C@H](CC(N)=O)NC(=O)[C@@H](N)CO)[C@@H](C)O)C(C)C)[C@@H](C)O)C(=O)N[C@@H](CCCCN)C(=O)N[C@@H](CCC(=O)O)C(N)=O
IC50 (HEK293): 0.72 nM
inhibition in vivo at 3 mg/kg (4T1): 44%
inhibition in vivo at 5 mg/kg (B16-F10): 44%

Compound: Cc1c(-c2ccccc2)cccc1-c1nc2cc(CNCCO)ccc2o1
IC50 [1]: < 100 nM

Compound: C[C@@H](O)[C@H](NC(=O)N[C@@H](CC(N)=O)C(=O)NNC(=O)[C@@H](N)CO)C(=O)O
inhibition in vivo at 3 mg/kg (CT26): 46%
EC50 [5]: 40 nM
EC50 [6]: 30 nM
Activity (Splenocyte [4]): 68%

Compound: N#Cc1c(NC(=O)c2ccc(CNCCO)cn2)cccc1-c1ccccc1
IC50 [3]: < 10 nM
